Converted amounts (≈) assume the structure as drawn.
Legend:
LIM domain kinase 1 [1] = biological target: T1, LIM domain kinase 1 (Homo sapiens, UniProt P53667); experiment: Inhibition of LIMK1-catalyzed cofilin phosphorylation in human ZR-75-1 cells; type: cell-based
[2] = biological target: Tyrosine-protein kinase Lck (Homo sapiens) (UniProt P06239); experiment: Inhibition of Lck (unknown origin) at 1 uM
[3] = biological target: Rho-associated protein kinase 2 (Homo sapiens) (UniProt O75116); experiment: Inhibition of ROCK2 (unknown origin) at 1 uM
[4] = biological target: Serine/threonine-protein kinase PAK 4 (Homo sapiens) (UniProt O96013); experiment: Inhibition of PAK4 (unknown origin) at 1 uM
CYP1A2 = biological target: T2, CYP1A2 (Homo sapiens, UniProt P05177); experiment: Inhibition of CYP1A2 in human liver microsomes assessed as reduction in apparent rate of formation of metabolites using phenacetin as substrate at 20 uM by LC-MS analysis; type: ADME; details: probe phenacetin
T2 sequence (P05177 whole entry): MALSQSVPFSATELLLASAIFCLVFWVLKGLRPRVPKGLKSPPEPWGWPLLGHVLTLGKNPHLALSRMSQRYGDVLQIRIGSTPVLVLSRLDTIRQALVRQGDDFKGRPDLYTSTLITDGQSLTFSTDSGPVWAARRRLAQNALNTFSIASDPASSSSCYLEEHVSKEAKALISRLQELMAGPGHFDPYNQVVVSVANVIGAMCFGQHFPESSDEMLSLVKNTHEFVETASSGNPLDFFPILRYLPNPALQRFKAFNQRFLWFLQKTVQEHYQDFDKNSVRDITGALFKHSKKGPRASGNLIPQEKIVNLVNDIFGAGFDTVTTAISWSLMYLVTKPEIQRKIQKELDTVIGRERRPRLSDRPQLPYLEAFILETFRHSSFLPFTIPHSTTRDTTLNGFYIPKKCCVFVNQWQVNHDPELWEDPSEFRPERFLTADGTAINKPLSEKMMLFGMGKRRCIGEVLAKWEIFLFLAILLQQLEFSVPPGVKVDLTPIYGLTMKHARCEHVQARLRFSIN

LIM domain kinase 2 = LIM domain kinase 2 (Homo sapiens, UniProt P53671); experiment: Inhibition of LIMK2 (unknown origin)
[5] = biological target: Tyrosine-protein kinase JAK2 (Homo sapiens) (UniProt O60674); experiment: Inhibition of JAK2 (unknown origin) at 1 uM
[6] = In vitro intrinsic clearance in mouse liver microsomes at 1 uM by LC-MS analysis; type: ADME; details: read-out: CLH
CYP3A4 = CYP3A4 (Homo sapiens, UniProt P08684); experiment: Inhibition of CYP3A4 in human liver microsomes assessed as reduction in apparent rate of formation of metabolites using midazolam or testosterone as substrate at 20 uM by LC-MS analysis; type: ADME; details: probe midazolam or testosterone
hERG (KCNH2) = hERG (KCNH2) (Homo sapiens, UniProt Q12809); experiment: Inhibition of human ERG at 10 uM by fluorescence polarization assay
[7] = biological target: Serine/threonine-protein kinase PAK 1 (Homo sapiens) (UniProt Q13153); experiment: Inhibition of PAK1 (unknown origin) at 1 uM
[8] = biological target: Proto-oncogene tyrosine-protein kinase Src (Homo sapiens) (UniProt P12931); experiment: Inhibition of Src (unknown origin) at 1 uM
[9] = biological target: T3, Tyrosine-protein kinase JAK3 (Homo sapiens) (UniProt P52333); experiment: Inhibition of JAK3 (unknown origin) at 1 uM
T3 sequence (whole entry): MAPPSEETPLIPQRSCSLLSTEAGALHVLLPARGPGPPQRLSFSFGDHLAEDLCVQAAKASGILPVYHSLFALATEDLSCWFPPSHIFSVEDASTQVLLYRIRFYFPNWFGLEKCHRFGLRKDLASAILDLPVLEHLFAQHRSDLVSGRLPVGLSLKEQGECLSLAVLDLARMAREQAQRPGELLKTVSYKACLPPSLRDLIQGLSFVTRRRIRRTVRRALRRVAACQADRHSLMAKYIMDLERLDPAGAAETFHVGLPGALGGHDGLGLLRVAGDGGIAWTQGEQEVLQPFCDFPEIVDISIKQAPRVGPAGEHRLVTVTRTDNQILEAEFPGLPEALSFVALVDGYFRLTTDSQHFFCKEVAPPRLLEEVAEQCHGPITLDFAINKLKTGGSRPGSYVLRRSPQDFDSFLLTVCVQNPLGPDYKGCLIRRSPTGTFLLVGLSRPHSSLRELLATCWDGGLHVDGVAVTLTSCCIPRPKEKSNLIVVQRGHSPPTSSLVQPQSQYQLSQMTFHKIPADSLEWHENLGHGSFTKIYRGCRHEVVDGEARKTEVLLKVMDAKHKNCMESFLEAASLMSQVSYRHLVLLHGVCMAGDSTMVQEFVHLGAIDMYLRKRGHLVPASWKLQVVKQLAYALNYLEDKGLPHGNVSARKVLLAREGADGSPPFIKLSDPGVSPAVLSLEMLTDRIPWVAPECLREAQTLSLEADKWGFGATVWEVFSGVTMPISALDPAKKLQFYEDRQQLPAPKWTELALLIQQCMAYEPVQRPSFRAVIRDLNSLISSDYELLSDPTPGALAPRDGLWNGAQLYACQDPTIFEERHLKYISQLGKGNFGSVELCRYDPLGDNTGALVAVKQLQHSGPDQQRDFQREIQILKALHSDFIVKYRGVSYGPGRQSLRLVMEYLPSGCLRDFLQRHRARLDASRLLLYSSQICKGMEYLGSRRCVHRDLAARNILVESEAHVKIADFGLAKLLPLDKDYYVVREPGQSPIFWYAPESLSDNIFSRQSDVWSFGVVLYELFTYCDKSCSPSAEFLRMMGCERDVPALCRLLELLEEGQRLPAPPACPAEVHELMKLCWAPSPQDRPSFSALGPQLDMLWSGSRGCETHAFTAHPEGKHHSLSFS

[10] = biological target: Tyrosine-protein kinase JAK1 (Homo sapiens) (UniProt P23458); experiment: Inhibition of JAK1 (unknown origin) at 1 uM
[11] = Solubility of the compound in phosphate buffer at pH 6.5 by nephelometry; type: physicochemical
[12] = In vitro intrinsic clearance in human liver microsomes at 1 uM by LC-MS analysis; type: ADME; details: read-out: CLH
[13] = Solubility of the compound in 0.01 M HCl at pH 2 by nephelometry; type: physicochemical
LIM domain kinase 1 [14] = biological target: T1, LIM domain kinase 1; experiment: Inhibition of LIMK1 (unknown origin) assessed as ADP formation using cofilin-2 protein as substrate measured after 60 mins incubation with enzyme by Transcreener assay
CYP2D6 (Homo sapiens) = experiment: Inhibition of CYP2D6 in human liver microsomes assessed as reduction in apparent rate of formation of metabolites using dextromethorphan as substrate at 20 uM by LC-MS analysis; details: probe dextromethorphan
[15] = Partition coefficient, log D of the compound at pH 7.4 by HPLC analysis; type: physicochemical; details: octanol/water
[16] = Plasma protein binding in human by LC-MS analysis; type: ADME, cell-free; details: read-out: PPB (converted)

hERG (KCNH2), sequence (Q12809 whole entry): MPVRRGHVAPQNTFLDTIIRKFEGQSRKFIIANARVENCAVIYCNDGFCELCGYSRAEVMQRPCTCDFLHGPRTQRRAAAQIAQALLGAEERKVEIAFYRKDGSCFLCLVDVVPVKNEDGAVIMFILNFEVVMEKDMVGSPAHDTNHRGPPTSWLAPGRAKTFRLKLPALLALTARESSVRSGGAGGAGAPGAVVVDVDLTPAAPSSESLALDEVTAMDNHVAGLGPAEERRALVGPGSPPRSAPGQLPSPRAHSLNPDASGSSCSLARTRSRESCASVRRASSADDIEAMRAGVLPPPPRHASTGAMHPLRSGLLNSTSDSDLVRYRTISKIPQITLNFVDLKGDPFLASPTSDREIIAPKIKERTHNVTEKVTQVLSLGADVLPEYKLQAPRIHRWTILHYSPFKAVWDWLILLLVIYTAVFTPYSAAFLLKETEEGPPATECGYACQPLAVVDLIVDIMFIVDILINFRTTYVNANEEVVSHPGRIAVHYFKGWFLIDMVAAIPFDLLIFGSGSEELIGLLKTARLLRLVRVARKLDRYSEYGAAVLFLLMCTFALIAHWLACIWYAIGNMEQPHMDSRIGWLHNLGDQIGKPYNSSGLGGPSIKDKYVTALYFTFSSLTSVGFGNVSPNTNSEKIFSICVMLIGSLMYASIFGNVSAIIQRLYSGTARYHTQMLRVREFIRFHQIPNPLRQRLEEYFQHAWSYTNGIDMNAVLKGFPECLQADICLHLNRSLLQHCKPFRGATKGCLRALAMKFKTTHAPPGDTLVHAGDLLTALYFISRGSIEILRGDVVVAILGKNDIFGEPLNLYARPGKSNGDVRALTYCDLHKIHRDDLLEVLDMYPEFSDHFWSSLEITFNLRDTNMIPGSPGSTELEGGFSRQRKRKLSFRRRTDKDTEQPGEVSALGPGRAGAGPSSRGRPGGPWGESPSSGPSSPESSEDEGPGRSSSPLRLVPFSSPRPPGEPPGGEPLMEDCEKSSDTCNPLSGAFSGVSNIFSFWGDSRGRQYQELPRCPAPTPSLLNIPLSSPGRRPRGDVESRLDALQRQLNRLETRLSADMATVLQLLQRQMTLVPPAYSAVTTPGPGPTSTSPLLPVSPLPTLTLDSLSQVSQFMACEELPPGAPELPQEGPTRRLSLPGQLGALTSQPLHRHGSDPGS
Tyrosine-protein kinase JAK1 (Homo sapiens), sequence (P23458 whole entry): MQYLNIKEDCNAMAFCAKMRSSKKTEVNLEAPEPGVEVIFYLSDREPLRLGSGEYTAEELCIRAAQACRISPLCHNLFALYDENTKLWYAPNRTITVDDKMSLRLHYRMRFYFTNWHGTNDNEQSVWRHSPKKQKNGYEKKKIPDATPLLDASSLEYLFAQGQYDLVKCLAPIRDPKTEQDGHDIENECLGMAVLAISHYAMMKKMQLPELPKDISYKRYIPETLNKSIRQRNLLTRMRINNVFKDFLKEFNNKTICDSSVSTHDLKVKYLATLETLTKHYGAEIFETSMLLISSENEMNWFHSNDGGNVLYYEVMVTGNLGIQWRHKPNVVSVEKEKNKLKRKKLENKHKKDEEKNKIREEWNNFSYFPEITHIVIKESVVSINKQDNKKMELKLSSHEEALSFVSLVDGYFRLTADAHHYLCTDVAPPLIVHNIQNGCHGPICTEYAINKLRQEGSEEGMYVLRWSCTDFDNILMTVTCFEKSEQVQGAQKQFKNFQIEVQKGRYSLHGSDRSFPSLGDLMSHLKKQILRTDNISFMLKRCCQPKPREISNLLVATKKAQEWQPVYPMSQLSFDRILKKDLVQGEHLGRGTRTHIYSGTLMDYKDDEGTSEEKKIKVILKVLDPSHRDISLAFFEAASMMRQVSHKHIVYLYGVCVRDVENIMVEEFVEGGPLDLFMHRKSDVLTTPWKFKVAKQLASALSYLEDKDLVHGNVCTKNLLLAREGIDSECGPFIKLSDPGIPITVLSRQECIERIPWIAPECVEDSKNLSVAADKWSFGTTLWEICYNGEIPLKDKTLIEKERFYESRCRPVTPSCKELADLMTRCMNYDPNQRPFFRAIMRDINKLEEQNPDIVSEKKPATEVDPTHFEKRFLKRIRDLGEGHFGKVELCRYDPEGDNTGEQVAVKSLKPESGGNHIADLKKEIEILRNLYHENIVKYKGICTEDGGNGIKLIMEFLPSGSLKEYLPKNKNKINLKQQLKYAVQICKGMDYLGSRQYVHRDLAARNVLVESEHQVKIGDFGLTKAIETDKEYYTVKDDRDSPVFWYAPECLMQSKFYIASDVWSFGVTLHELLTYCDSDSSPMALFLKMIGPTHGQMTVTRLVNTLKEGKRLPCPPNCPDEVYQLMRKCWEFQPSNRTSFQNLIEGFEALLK
Tyrosine-protein kinase Lck (Homo sapiens), sequence (P06239 2-509 limits assumed): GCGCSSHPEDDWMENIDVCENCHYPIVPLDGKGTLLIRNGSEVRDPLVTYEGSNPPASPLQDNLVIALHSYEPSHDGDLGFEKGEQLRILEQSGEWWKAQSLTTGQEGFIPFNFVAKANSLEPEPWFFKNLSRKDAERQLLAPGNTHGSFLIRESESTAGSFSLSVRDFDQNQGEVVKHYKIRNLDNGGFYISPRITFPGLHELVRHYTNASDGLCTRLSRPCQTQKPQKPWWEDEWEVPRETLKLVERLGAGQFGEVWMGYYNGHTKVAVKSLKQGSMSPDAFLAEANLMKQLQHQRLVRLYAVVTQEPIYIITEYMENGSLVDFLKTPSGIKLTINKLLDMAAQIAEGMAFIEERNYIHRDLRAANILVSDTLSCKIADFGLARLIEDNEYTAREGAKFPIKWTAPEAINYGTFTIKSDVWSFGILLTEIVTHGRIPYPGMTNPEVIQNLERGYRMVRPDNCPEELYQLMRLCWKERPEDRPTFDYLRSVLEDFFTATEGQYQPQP
Proto-oncogene tyrosine-protein kinase Src (Homo sapiens), sequence (P12931 2-536 limits assumed): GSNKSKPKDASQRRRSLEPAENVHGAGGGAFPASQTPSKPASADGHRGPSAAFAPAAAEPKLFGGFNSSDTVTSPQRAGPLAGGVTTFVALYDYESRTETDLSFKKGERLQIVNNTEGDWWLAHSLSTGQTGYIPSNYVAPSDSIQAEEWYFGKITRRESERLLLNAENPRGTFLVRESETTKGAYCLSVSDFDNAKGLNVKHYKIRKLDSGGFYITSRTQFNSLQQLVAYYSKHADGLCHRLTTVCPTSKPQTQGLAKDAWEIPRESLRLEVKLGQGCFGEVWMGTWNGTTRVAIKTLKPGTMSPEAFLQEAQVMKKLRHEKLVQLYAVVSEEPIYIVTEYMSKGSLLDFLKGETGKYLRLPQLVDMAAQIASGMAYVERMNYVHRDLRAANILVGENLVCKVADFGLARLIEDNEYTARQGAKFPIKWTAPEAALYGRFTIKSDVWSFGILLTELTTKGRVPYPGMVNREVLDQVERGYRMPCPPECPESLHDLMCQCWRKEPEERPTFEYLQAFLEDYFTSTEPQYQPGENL
Serine/threonine-protein kinase PAK 1 (Homo sapiens), sequence (Q13153 whole entry): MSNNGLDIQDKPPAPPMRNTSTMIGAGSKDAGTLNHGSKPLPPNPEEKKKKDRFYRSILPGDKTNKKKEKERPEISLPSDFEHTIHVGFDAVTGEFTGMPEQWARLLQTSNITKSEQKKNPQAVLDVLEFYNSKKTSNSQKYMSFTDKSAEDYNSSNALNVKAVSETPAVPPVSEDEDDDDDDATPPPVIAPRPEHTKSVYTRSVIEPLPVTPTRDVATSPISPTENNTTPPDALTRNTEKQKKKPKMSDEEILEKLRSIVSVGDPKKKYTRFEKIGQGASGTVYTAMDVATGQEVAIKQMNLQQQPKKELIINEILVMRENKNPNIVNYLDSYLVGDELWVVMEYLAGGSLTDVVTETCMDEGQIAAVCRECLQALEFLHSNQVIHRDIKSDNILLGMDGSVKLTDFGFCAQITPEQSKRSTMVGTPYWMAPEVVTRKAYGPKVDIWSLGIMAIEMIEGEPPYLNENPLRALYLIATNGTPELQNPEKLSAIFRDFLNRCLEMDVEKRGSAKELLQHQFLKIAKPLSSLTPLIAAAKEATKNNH
Serine/threonine-protein kinase PAK 4 (Homo sapiens), sequence (O96013 whole entry, looked up): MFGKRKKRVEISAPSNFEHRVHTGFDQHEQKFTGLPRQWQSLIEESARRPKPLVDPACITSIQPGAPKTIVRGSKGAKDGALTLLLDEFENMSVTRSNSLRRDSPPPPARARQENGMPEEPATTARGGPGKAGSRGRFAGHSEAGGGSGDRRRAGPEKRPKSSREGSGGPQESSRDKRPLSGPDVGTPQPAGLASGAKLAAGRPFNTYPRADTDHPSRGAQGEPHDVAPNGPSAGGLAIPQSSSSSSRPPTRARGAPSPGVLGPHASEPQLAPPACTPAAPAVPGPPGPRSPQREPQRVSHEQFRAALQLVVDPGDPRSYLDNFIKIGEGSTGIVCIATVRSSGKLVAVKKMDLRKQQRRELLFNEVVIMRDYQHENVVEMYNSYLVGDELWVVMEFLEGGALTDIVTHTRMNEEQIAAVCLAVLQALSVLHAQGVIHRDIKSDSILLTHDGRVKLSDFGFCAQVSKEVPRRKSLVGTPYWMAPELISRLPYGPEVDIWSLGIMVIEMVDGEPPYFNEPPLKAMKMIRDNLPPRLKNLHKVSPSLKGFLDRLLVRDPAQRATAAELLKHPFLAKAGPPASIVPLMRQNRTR
CYP3A4, sequence (P08684 whole entry): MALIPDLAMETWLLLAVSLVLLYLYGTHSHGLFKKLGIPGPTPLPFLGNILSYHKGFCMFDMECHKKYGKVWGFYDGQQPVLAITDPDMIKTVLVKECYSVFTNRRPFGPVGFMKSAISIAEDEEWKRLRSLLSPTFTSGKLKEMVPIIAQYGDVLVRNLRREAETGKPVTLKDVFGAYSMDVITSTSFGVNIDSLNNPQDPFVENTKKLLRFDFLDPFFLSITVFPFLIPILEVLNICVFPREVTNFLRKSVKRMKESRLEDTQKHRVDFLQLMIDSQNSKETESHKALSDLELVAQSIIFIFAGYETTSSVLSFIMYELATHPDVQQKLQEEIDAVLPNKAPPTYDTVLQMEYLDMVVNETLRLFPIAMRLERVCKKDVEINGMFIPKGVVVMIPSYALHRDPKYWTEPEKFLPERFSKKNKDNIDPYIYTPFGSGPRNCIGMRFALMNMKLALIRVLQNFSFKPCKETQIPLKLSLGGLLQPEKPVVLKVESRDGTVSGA

## Nc1ncnc2c1sc1cc(-c3cccc(NC(=O)N4CCCC4)c3)ccc12
LIM domain kinase 1 [1]
  IC50: 2.4 µM
[2]
  inhibition: 71%
[3]
  inhibition: 10%
[4]
  inhibition: 7%
CYP1A2
  inhibition at 20 µM: 28%
LIM domain kinase 2
  IC50: 0.103 µM
[5]
  inhibition: 95%
[6]
  microsomal CLint at 1 µM: 56 µL/min/mg
CYP3A4
  inhibition at 20 µM: 82%
hERG (KCNH2)
  inhibition at 10 µM: 0%
[7]
  inhibition: 0%
[8]
  inhibition: 60%
[9]
  inhibition: 56%
[10]
  inhibition: 13%
[11]
  solubility kinetic: 3.1 µg/mL (≈ 7.96 µM)
[12]
  microsomal CLint at 1 µM: 77 µL/min/mg
[13]
  solubility kinetic: 50 µg/mL (≈ 128 µM)
LIM domain kinase 1 [14]
  IC50: 0.095 µM
CYP2D6 (Homo sapiens)
  inhibition at 20 µM: 9%
[15]
  logD: 2.8

## CN1CCN(C(=O)Nc2cccc(-c3ccc4c(c3)sc3c(N)ncnc34)c2)CC1
LIM domain kinase 1 [1]
  IC50: 1.6 µM
[2]
  inhibition: 75%
[3]
  inhibition: 24%
[4]
  inhibition: 0%
CYP1A2
  inhibition at 20 µM: 11%
LIM domain kinase 2
  IC50: 0.157 µM
[5]
  inhibition: 88%
[6]
  microsomal CLint at 1 µM: 27 µL/min/mg
CYP3A4
  inhibition at 20 µM: 82%
hERG (KCNH2)
  inhibition at 10 µM: 27%
[7]
  inhibition: 33%
[8]
  inhibition: 71%
[9]
  inhibition: 53%
[10]
  inhibition: 25%
[11]
  solubility kinetic: 12.5 µg/mL (≈ 29.9 µM)
[12]
  microsomal CLint at 1 µM: 165 µL/min/mg
[13]
  solubility kinetic: > 100 µg/mL
LIM domain kinase 1 [14]
  IC50: 0.095 µM
[16]
  fraction unbound: 0.037
CYP2D6 (Homo sapiens)
  inhibition at 20 µM: 12%
[15]
  logD: 2.5

## Nc1ncnc2c1sc1cc(-c3cccc(C(=O)NCC(=O)N4CCOCC4)c3)ccc12
LIM domain kinase 1 [1]
  IC50: 1.4 µM
[2]
  inhibition: 97%
[3]
  inhibition: 18%
[4]
  inhibition: 0%
CYP1A2
  inhibition at 20 µM: 17%
[5]
  inhibition: 97%
[6]
  microsomal CLint at 1 µM: < 6 µL/min/mg
CYP3A4
  inhibition at 20 µM: 70%
hERG (KCNH2)
  inhibition at 10 µM: 0%
[7]
  inhibition: 23%
[8]
  inhibition: 45%
[9]
  inhibition: 65%
[10]
  inhibition: 31%
[11]
  solubility kinetic: 6.3 µg/mL (≈ 14.1 µM)
[12]
  microsomal CLint at 1 µM: 68 µL/min/mg
[13]
  solubility kinetic: 50 µg/mL (≈ 112 µM)
LIM domain kinase 1 [14]
  IC50: 0.081 µM
[16]
  fraction unbound: 0.053
[15]
  logD: 2.1

## Nc1ncnc2c1sc1cc(-c3cccc(C(=O)NCCc4cccnc4)c3)ccc12
LIM domain kinase 1 [1]
  IC50: 4.1 µM
[2]
  inhibition: 85%
[3]
  inhibition: 13%
[4]
  inhibition: 13%
CYP1A2
  inhibition at 20 µM: 13%
LIM domain kinase 2
  IC50: 0.133 µM
[5]
  inhibition: 98%
[6]
  microsomal CLint at 1 µM: 111 µL/min/mg
CYP3A4
  inhibition at 20 µM: 99%
hERG (KCNH2)
  inhibition at 10 µM: 11%
[7]
  inhibition: 8%
[8]
  inhibition: 23%
[9]
  inhibition: 60%
[10]
  inhibition: 31%
[11]
  solubility kinetic: < 1.6 µg/mL
[12]
  microsomal CLint at 1 µM: 116 µL/min/mg
[13]
  solubility kinetic: 50 µg/mL (≈ 118 µM)
LIM domain kinase 1 [14]
  IC50: 0.097 µM
[16]
  fraction unbound: 0.014
CYP2D6 (Homo sapiens)
  inhibition at 20 µM: 74%
[15]
  logD: 2.7

— ChEMBL document CHEMBL3390844, “Development of substituted 7-phenyl-4-aminobenzothieno[3,2-d] pyrimidines as potent LIMK1 inhibitors” (Medchemcomm, 2011)
